Reference: BindingDB's records for doi:10.1111/j.1747-0285.2010.00965.x (Ataturk University, 2010)

Key:
Carbonic anhydrase 1 = Carbonic anhydrase 1 (Homo sapiens, UniProt P00915); assay: Esterase Activity Assay; conditions: pH 7.4; 25 °C
Carbonic anhydrase 2 = Carbonic anhydrase 2 (Homo sapiens, UniProt P00918); assay: Esterase Activity Assay; conditions: pH 7.4; 25 °C

Sequence of Carbonic anhydrase 1 (P00915 whole entry): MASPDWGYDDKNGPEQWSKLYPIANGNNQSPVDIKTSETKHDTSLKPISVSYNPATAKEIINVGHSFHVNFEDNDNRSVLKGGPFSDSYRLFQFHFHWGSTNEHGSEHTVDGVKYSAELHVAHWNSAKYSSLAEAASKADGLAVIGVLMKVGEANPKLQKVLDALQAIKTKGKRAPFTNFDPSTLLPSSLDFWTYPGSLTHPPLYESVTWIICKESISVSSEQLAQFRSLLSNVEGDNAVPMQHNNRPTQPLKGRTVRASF

Row | SMILES | Ki (Carbonic anhydrase 1) [µM] | Ki (Carbonic anhydrase 2) [µM]
1 | O=c1c(O)c(-c2ccc(O)c(O)c2)oc2cc(O)cc(O)c12 [2-(3,4-dihydroxyphenyl)-3,5,7-trihydroxy-chromone;hydrate] | 99 | 105
2 | O=C(O)c1ccc(O)cc1 [4-Hydroxybenzoate, III] | 1060 | –
3 | O=c1oc2c(O)c(O)cc3c(=O)oc4c(O)c(O)cc1c4c23 [Elagic Acid] | 207 | –
4 | COc1cc(/C=C/C(=O)O)ccc1O [Ferulic acid (M5)] | 408 | 210
5 | O=C(O)c1cc(O)c(O)c(O)c1 [Gallic Acid, F] | 1050 | 758
6 | COc1cc(C(=O)O)cc(OC)c1O [Syringic acid] | 919 | 695
7 | O=C(O)/C=C/c1ccc(O)cc1 [p-Coumaric Acid] | 441 | 537
